Results reported in patent publication US9359341B2, “Aldehyde derivative of substitute oxazolidinones” (WANBURY LTD., priority 2012, dated 2016).

Experiments:
[1] = Intravenous and oral pharmacokinetics in Wistar rats; assay type: in vivo; conditions: for plasma exposure (AUC, C max) as compared to Rivaroxaban: Wistar rats, IV 1 mg/kg and PO 10 mg/kg
Description: On the day before administration of the substance, a catheter for obtaining blood is implanted in the jugular vein of the experimental animals (male Wistar rats, body weight 200-250 g) under Isofluran® anesthesia.
Blood samples (8-12 time points) are taken through the catheter sequentially over the course of 24 h after administration of the substance. The administration volume is 10 ml/kg for oral and 1 ml/kg for IV in male Wistar rats. Intravenous administration is via a formulation of 2% N—N Dimethyl acetamide/ethanol 10%/PEG400 (30%)/water for IV injection (58%) and via Tween80/PEG400/sterile water in the case of oral administration. Removal of blood is after 0.08, 0.25, 0.5, 1, 2, 3, 4, 6, 8 and 12 hours in the case of IV and, blood withdrawn after 0.25, 0.5, 1.0, 2, 3, 4, 6, 8 and 12 hours for oral administration.
Plasma is obtained by centrifuging the samples in heparinized tubes. IS containing Acetonitrile is added to a defined plasma volume per time point to precipitate proteins. After centrifugation, compound formula (B) and, where appropriate, known cleavage products of the compound formula (B) in the supernatant are determined quantitatively using a suitable LC/MS-MS method.
The measured plasma concentrations are used to calculate pharmacokinetic parameters of the test substance and of the active ingredient compound (A) liberated there from, such as AUC, Cmax, T½ (half-life) and CL (clearance).
Acetonitrile containing IS is added to the study samples, calibration samples and QCs, and the protein is precipitated using acetonitrile. Vortexed and centrifuged at 4000 rpm and the supernatant is injected by LC-MS/MS (API 4000, AB Sciex). Chromatographic separation is carried out on an Shimadzu UFLC. The injection volume is 10 μl. The separation column used is a Phenomenex Gemini NX 4.6×5μ. 100 mm, adjusted to a temperature of 30° C. […]
The plasma concentration/time plots determined are used to calculate the pharmacokinetic parameters such as AUC, Cmax, MRT (mean residence time), t½ (half life) and CL (clearance) employing the validated pharmacokinetic calculation programs.

[2] = In vitro stability in mouse plasma; assay type: in vitro ADME; conditions: conversion to rivaroxaban seen from zero min
Description: The final concentration of the test compound in the assay is 5 micromolar. […] C. The 100 microliters of aliquot at time point was removed and diluted with ice cold acetonitrile containing IS (200.mu·L) to stop the reactions. Samples are centrifuged at 10,000 RPM for 5 minutes to precipitate proteins. Supernatants are transferred to micro centrifuge tubes and stored at −20° C. for analysis of LC/MS/MS. The percent parent remaining of the test substance is calculated as ratio of peak area at each time point to peak area ratio at zero min, multiplied by 100.
API 4000, ESI Agilent 1100 column: Gemini Nx 100 mm×4.6 mm 5.1; column temperature: 30° C.; eluent A: 0.1% formic acid in water, eluent B: acetonitrile; gradient: 0-2.5 min 95% A, 5% B; 2.5-2.6 min 5% A, 95% B; 2.6-4.2 min 95% A, 5% B; flow rate: 0.8 ml/min; ESI. Q1:464.098, Q3:144.255

[3] = Stability in simulating gastric fluid (SGF); assay type: physicochemical
Description: On completion of incubation period, the solution is centrifuged and supernatant is taken. To the supernatant, ice cold acetonitrile containing IS is added, vortexed and injected into LCMS/MS.
API 4000, ESI Agilent 1100 column: Gemini Nx 100 mm×4.6 mm 5.μ; column temperature: 30° C.; eluent A: 0.1% formic acid in water, eluent B: acetonitrile; gradient: 0-2.5 min 95% A, 5% B; 2.5-2.6 min 5% A, 95% B; 2.6-4.2 min 95% A, 5% B; flow rate: 0.8 ml/min; ESI. Q1:464.098, Q3:144.255
Prepared 0.1 mol of citric acid and 0.2 mol of di sodium hydrogen phosphate in water. Buffer pH 2.2, 4 and 7.8 are prepared using citric acid and disodium hydrogen phosphate by adjusting the pH with 0.1N HCl or 1N NaOHpH 7.4: 8.89 g disodium hydrogen phosphate (Solution A) add to 1 liter of water, 1.5601 g sodium di-hydrogen phosphate (solution B) are made up to 1 liter with water; Solution A (19 ml) and Solution B (81 ml) are mixed. SIF/SGF: 2.38 g of SIF original powder (biorelavant media) is dissolved in 1 L of milliQ water. The pH of the solution is adjusted for SIF (7.4) and SGF (2.2) with 0.1N HCl. The ratios of the peak areas (F) at the respective time points in relation to the peak areas at the starting time are calculated
The peak area (F) is directly correlated to the amount of test compound which is quantified by the LC MS method.
In simulating intestinal and gastric fluid, the area of the formula B compared with zero minute area to 120 min.

For `O=CN(C[C@H]1CN(c2ccc(N3CCOCC3=O)cc2)C(=O)O1)C(=O)c1ccc(Cl)s1` [Compound formula B, 5-chloro-N-formyl-N-({(5S)-2-oxo-3-[4-(3-oxomorpholin-4-yl)phenyl]-1,3-oxazolidin-5-yl}methyl)thiophene-2-carboxamide], the “plasma exposure (AUC, C max) as compared to Rivaroxaban” value [1] was “increased exposure”, the “plasma exposure (AUC, C max) as compared to Rivaroxaban” value ([1]; listed as Test product) was “higher” and the “detectability of test substance in plasma” value ([1]; after i.v. administration, at the first measurement point) was “no longer detectable in plasma”. For the same compound, the “Conversion: amount of test product detected” value [2] was “min. Neglible”, the “% Parent remaining” value ([3]; 30 min) was 99.27% and the “% Parent remaining” value ([3]; 60 min) was 101.17%. For the same compound, the “% Parent remaining” value ([3]; 120 min) was 100.05%, the “% Parent remaining” value ([3]; Zero min) was 100% and the “Conclusion (stability in SGF)” value ([3]; up to 120 min) was “is stable”.
